Columns and labels:
STEME [1] = assay: A. Herbicidal pre-emergence action on harmful plants (Tables A); type: in vivo, Stellaria media; settings: visual grading after ca. 3 weeks vs untreated controls, 100% = plants have died off, 0% = as control plants
Procedure, shortened: (§1)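 Values are visual percent damage relative to untreated controls, scored ca. 3 weeks after the compound was sprayed on the covering soil of sown pots (sandy loam) at rates up to 1280 g/ha, formulated as WP or EC with 0.5% additive.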

KCHSC = assay: B. Herbicidal post-emergence action on harmful plants (Tables B); type: in vivo, Kochia scoparia
Procedure: (§2) Seeds of mono- and dicotyledonous weed plants were placed in plastic pots in sandy loam soil (doubly sown with in each case one species of mono- or dicotyledonous weed plants per pot), covered with soil and cultivated in a greenhouse under controlled growth conditions. 2 to 3 weeks after sowing, the test plants were treated at the one-leaf stage. The compounds of the invention, formulated in the form of wettable powders (WP) or as emulsion concentrates (EC), were applied onto the green parts of the plants as aqueous suspension or emulsion with addition of 0.5% additive at a water application rate of 600 liters per hectare (converted). After the test plants had been kept in the greenhouse under optimum growth conditions for about 3 weeks, the activity of the preparations was rated visually in comparison to untreated controls. For example, 100% activity = the plants have died, 0% activity = like control plants. Tables B1 to B12, below, show the effects of selected compounds of the general formula (I) according to table 1 on various harmful plants and an application rate corresponding to 1280 g/ha or below obtained by the experimental procedure mentioned above. Table B1a: post-emergence activity at 1280g/ha against ABUTH in %

SETVI [2] = assay: A. Herbicidal pre-emergence action on harmful plants (Tables A); type: in vivo, Setaria viridis; settings: visual grading after ca. 3 weeks vs untreated controls, 100% = plants have died off, 0% = as control plants
Procedure, shortened: as §1

DIGSA [3] = assay: as above; type: in vivo, Digitaria sanguinalis
Procedure, shortened: as §1

POAAN [4] = assay: as above; type: in vivo, Poa annua
Procedure, shortened: as §1

ECHCG [5] = assay: as above; type: in vivo, Echinochloa crus-galli; settings: visual grading after ca. 3 weeks vs untreated controls, 100% = plants have died off, 0% = as control plants
Procedure, shortened: as §1

MATIN [6] = assay: as above; type: in vivo, Matricaria inodora; settings: visual grading after ca. 3 weeks vs untreated controls, 100% = plants have died off, 0% = as control plants
Procedure, shortened: as §1

LOLRI [7] = assay: as above; type: in vivo, Lolium rigidum; settings: visual grading after ca. 3 weeks vs untreated controls, 100% = plants have died off, 0% = as control plants
Procedure, shortened: as §1

ABUTH = assay: B. Herbicidal post-emergence action on harmful plants (Tables B); type: in vivo, Abutilon theophrasti; settings: application rate 1280 g/ha; Table B1a
Procedure, shortened: (§3)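 Greenhouse weeds grown in sandy loam were sprayed post-emergence at the one-leaf stage, 2-3 weeks after sowing. Compounds were applied as WP or EC in water with 0.5% additive at 600 L/ha, at 1280 g/ha or below. Visual damage was rated after about 3 weeks versus untreated plants (0-100%).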

AMARE [8] = assay: as above; type: in vivo, Amaranthus retroflexus; settings: application rate 1280 g/ha; Table B8
Procedure: as §2

DIGSA [9] = assay: as above; type: in vivo, Digitaria sanguinalis; settings: application rate 1280 g/ha; Table B12a
Procedure, shortened: as §3

AMARE [10] = assay: A. Herbicidal pre-emergence action on harmful plants (Tables A); type: in vivo, Amaranthus retroflexus
Procedure, shortened: as §1

POAAN [11] = assay: B. Herbicidal post-emergence action on harmful plants (Tables B); type: in vivo, Poa annua
Procedure, shortened: as §3

MATIN [12] = assay: as above; type: in vivo, Matricaria inodora; settings: application rate 1280 g/ha; Table B4a
Procedure, shortened: as §3

ALOMY = assay: A. Herbicidal pre-emergence action on harmful plants (Tables A); type: in vivo, Alopecurus myosuroides
Procedure, shortened: as §1

SETVI [13] = assay: B. Herbicidal post-emergence action on harmful plants (Tables B); type: in vivo, Setaria viridis; settings: application rate 1280 g/ha; Table B5
Procedure, shortened: as §3

LOLRI [14] = assay: as above; type: in vivo, Lolium rigidum; settings: application rate 1280 g/ha; Table B3
Procedure: as §2

STEME [15] = assay: as above; type: in vivo, Stellaria media; settings: application rate 1280 g/ha; Table B6
Procedure, shortened: as §3

VERPE [16] = assay: A. Herbicidal pre-emergence action on harmful plants (Tables A); type: in vivo, Veronica persica; settings: application rate 1280 g/ha; Table A11
Excerpt: Seeds of mono- and dicotyledonous weed plants were sown in plastic pots (double sowings with one species of mono- and one species of dicotyledonous weed plants per pot), in sandy loam, and covered with soil. The compounds according to the invention, formulated in the form of wettable powders (WP) or as emulsifiable concentrates (EC), were applied to the surface of the covering soil as aqueous suspension or emulsion, with the addition of 0.5% of an additive, at an application rate of 6001 of water per hectare (converted). Following treatment, the pots were placed in a greenhouse and kept under optimum growth conditions for the test plants. The visual grading of the damage to the test plants was carried out after ca. 3 weeks in comparison to untreated controls (herbicidal effect in percent (%): 100% effect = plants have died off, 0% effect = as control plants). Tables A1 to A12, below, show the effects of selected compounds of the general formula (I) according to table 1 on various harmful plants and an application rate corresponding to 1280 g/ha or below obtained by the experimental procedure mentioned above. Table A1: pre-emergence activity at 1280g/ha against ABUTH in %

VERPE [17] = assay: B. Herbicidal post-emergence action on harmful plants (Tables B); type: in vivo, Veronica persica
Procedure, shortened: as §3

ECHCG [18] = assay: as above; type: in vivo, Echinochloa crus-galli
Procedure, shortened: as §3

[19] = application rate 1280 g/ha, Table B10a
[20] = application rate 320 g/ha, Table A12b
[21] = application rate 1280 g/ha, Table A12a
[22] = application rate 80 g/ha, Table A7c
[23] = application rate 320 g/ha, Table A7b
[24] = application rate 1280 g/ha, visual grading after ca. 3 weeks vs untreated controls, 100% = plants have died off, 0% = as control plants
[25] = application rate 1280 g/ha, Table B7a
[26] = application rate 1280 g/ha, Table A9a

COCc1c(C(=O)N2CCCC2Cc2ccccc2F)cnn1C (racemic) [Example I-171]
pre-emergence activity against STEME (STEME [1]; application rate 1280 g/ha): 90%
post-emergence activity against KCHSC (KCHSC; [19]): 90%
pre-emergence activity against SETVI (SETVI [2]; application rate 320 g/ha): 90%
pre-emergence activity against SETVI (SETVI [2]; application rate 1280 g/ha): 100%
pre-emergence activity against DIGSA (DIGSA [3]; [20]): 90%
pre-emergence activity against DIGSA (DIGSA [3]; [21]): 100%
pre-emergence activity against POAAN (POAAN [4]; [22]): 90%
pre-emergence activity against POAAN (POAAN [4]; [23]): 100%
pre-emergence activity against POAAN (POAAN [4]; [24]): 100%
pre-emergence activity against ECHCG (ECHCG [5]; application rate 320 g/ha): 90%
pre-emergence activity against ECHCG (ECHCG [5]; application rate 1280 g/ha): 100%
pre-emergence activity against MATIN (MATIN [6]; application rate 1280 g/ha): 100%
pre-emergence activity against LOLRI (LOLRI [7]; application rate 320 g/ha): 90%
pre-emergence activity against LOLRI (LOLRI [7]; application rate 1280 g/ha): 100%

COCc1nn(C)cc1C(=O)N1CCCC1Cc1ccc(F)cc1F (single isomer, unassigned) [Example I-079]
pre-emergence activity against STEME (STEME [1]; application rate 80 g/ha): 90%
pre-emergence activity against STEME (STEME [1]; application rate 320 g/ha): 90%
pre-emergence activity against STEME (STEME [1]; application rate 1280 g/ha): 90%
post-emergence activity against ABUTH (ABUTH): 90%
pre-emergence activity against SETVI (SETVI [2]; application rate 80 g/ha): 90%
pre-emergence activity against SETVI (SETVI [2]; application rate 320 g/ha): 90%
pre-emergence activity against SETVI (SETVI [2]; application rate 1280 g/ha): 90%
pre-emergence activity against DIGSA (DIGSA [3]; application rate 80 g/ha, Table A12c): 90%
pre-emergence activity against DIGSA (DIGSA [3]; [20]): 90%
pre-emergence activity against DIGSA (DIGSA [3]; [21]): 90%
post-emergence activity against AMARE (AMARE [8]): 90%
post-emergence activity against DIGSA (DIGSA [9]): 90%
pre-emergence activity against AMARE (AMARE [10]; application rate 320 g/ha, Table A8b): 90%
pre-emergence activity against AMARE (AMARE [10]; [24]): 90%
post-emergence activity against POAAN (POAAN [11]; application rate 80 g/ha, Table B7c): 90%
post-emergence activity against POAAN (POAAN [11]; application rate 320 g/ha, Table B7b): 90%
post-emergence activity against POAAN (POAAN [11]; [25]): 90%
pre-emergence activity against POAAN (POAAN [4]; [22]): 100%
pre-emergence activity against POAAN (POAAN [4]; [23]): 100%
pre-emergence activity against POAAN (POAAN [4]; [24]): 100%
post-emergence activity against MATIN (MATIN [12]): 90%
pre-emergence activity against ECHCG (ECHCG [5]; application rate 80 g/ha): 90%
pre-emergence activity against ECHCG (ECHCG [5]; application rate 320 g/ha): 90%
pre-emergence activity against ECHCG (ECHCG [5]; application rate 1280 g/ha): 90%
pre-emergence activity against ALOMY (ALOMY; application rate 320 g/ha, Table A9b): 90%
pre-emergence activity against ALOMY (ALOMY; [26]): 90%
post-emergence activity against SETVI (SETVI [13]): 90%
post-emergence activity against LOLRI (LOLRI [14]): 90%
post-emergence activity against STEME (STEME [15]): 90%
pre-emergence activity against MATIN (MATIN [6]; application rate 80 g/ha): 90%
pre-emergence activity against MATIN (MATIN [6]; application rate 320 g/ha): 90%
pre-emergence activity against MATIN (MATIN [6]; application rate 1280 g/ha): 90%
pre-emergence activity against LOLRI (LOLRI [7]; application rate 80 g/ha): 90%
pre-emergence activity against LOLRI (LOLRI [7]; application rate 320 g/ha): 100%
pre-emergence activity against LOLRI (LOLRI [7]; application rate 1280 g/ha): 100%
pre-emergence activity against VERPE (VERPE [16]): 90%
post-emergence activity against VERPE (VERPE [17]; application rate 320 g/ha, Table B11b): 90%
post-emergence activity against VERPE (VERPE [17]; application rate 1280 g/ha, Table B11a): 90%
post-emergence activity against ECHCG (ECHCG [18]; application rate 320 g/ha, Table B2b): 90%
post-emergence activity against ECHCG (ECHCG [18]; application rate 1280 g/ha, Table B2a): 90%

CC(C)COCc1nn(C)cc1C(=O)N1CCCC1Cc1cc(F)ccc1F (racemic) [Example I-009]
post-emergence activity against KCHSC (KCHSC; application rate 320 g/ha, Table B10b): 100%
post-emergence activity against KCHSC (KCHSC; [19]): 100%
pre-emergence activity against SETVI (SETVI [2]; application rate 1280 g/ha): 100%
pre-emergence activity against DIGSA (DIGSA [3]; [21]): 90%
post-emergence activity against AMARE (AMARE [8]): 90%
post-emergence activity against DIGSA (DIGSA [9]): 100%
pre-emergence activity against AMARE (AMARE [10]; [24]): 100%
pre-emergence activity against POAAN (POAAN [4]; [24]): 100%
post-emergence activity against MATIN (MATIN [12]): 90%
pre-emergence activity against ECHCG (ECHCG [5]; application rate 1280 g/ha): 100%

Cn1ncc(C(=O)N2CCCC2Cc2ccccc2F)c1COCC(F)(F)F (racemic) [Example I-163]
pre-emergence activity against STEME (STEME [1]; application rate 1280 g/ha): 90%
post-emergence activity against KCHSC (KCHSC; [19]): 90%
pre-emergence activity against DIGSA (DIGSA [3]; [21]): 90%
post-emergence activity against POAAN (POAAN [11]; [25]): 100%
pre-emergence activity against POAAN (POAAN [4]; [24]): 100%
pre-emergence activity against ECHCG (ECHCG [5]; application rate 1280 g/ha): 90%
pre-emergence activity against ALOMY (ALOMY; [26]): 100%
pre-emergence activity against VERPE (VERPE [16]): 100%

— patent publication EP4417602A1, “SUBSTITUTED PYRAZOLE CARBOXAMIDES, SALTS THEREOF AND THEIR USE AS HERBICIDALLY ACTIVE SUBSTANCES” (Bayer AG, priority 2023, dated 2024)
